{"source": "patent US9102701B2", "about": "“17-hydroxy-17-pentafluoroethyl-estra-4,9(10)-diene-11-ethynylphenyl derivatives, methods for the production thereof and use thereof for treating diseases” (Bayer Intellectual Property GmbH, priority 2009, dated 2015)", "key": {"[1]": {"molecular_target": "T1, human progesterone receptor A (Homo sapiens, UniProt P06401)", "T1 construct": "expressed in transfected cells; host or cells: SK-N-MC human neuroblastoma cells, stably transfected with pRChPR-A-neo and pMMTV-LUC", "T1 sequence (P06401 1-769 isoform P06401-2)": "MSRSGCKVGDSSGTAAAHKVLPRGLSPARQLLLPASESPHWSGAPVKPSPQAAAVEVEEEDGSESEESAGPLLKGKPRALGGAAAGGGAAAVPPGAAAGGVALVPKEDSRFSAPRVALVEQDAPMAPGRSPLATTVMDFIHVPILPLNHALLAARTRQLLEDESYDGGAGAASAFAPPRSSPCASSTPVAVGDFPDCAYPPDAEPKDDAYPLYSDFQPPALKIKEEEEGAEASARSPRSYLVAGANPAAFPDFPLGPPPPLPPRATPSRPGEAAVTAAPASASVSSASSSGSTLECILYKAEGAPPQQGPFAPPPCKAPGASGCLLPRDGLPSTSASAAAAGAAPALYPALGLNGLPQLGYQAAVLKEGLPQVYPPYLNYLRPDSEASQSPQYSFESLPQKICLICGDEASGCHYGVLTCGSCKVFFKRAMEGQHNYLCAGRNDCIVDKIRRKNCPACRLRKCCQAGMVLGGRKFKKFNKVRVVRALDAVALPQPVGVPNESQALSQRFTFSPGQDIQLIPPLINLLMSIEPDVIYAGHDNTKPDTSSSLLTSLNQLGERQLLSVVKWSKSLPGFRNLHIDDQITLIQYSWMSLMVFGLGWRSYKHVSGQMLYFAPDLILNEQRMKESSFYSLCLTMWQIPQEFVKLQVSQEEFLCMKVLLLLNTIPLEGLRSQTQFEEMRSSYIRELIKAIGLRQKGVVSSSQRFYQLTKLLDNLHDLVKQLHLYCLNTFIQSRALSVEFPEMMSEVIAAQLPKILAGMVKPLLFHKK", "test": "Progesterone receptor-antagonistic action in stably transfected SK-N-MC cells, PR-A, MMTV-LUC reporter", "type": "cell-based", "settings": "read-out: IC50 PR-A", "method": "(§1) Determination of Progesterone Receptor-Antagonistic Action in Stable Transfectants of Human Neuroblastoma Cells (SK-N-MC Cells) with the Human Progesterone a or Progesterone B Receptor and an MN-LUC Reporter Construct\n(§2) SK-N-MC cells (human neuroblastoma cells) which have been stably transfected with plasmids expressing the human progesterone receptor B (pRChPR-B-neo) or the human progesterone receptor A (pRChPR-A-neo) and a reporter construct (pMMTV-LUC) were incubated for 24 hours either in the absence (negative control) or in the presence of ascending amounts of the particular test compound (0.01 nmol/l, 0.1 nmol/l, 1 nmol/l, 10 nmol/l, 100 nmol/l and […]), in order to determine the agonistic efficacy. As a positive control of the reporter gene induction, the cells were treated with the synthetic gestagen promegestone (0.01 nmol/l, 0.1 nmol/l, 1 nmol/l, 10 nmol/l, 100 nmol/l and […]). To determine the antagonistic activity, the cells were treated with 0.1 nmol/l promegestone and additionally with ascending amounts of the particular test compound (0.01 nmol/l, 0.1 nmol/l, 1 nmol/l, 10 nmol/l, 100 nmol/l and […]). The activity of the reporter gene LUC (LUC=luciferase) was determined in the cell lysates and measured as RLU (relative light units). All measurements are reported as % efficacy and as EC50 and IC50 concentrations."}, "[2]": {"molecular_target": "T2, human progesterone receptor B (Homo sapiens, UniProt P06401)", "T2 construct": "expressed in transfected cells; host or cells: SK-N-MC human neuroblastoma cells, stably transfected with pRChPR-B-neo and pMMTV-LUC", "T2 sequence (P06401 1-933)": "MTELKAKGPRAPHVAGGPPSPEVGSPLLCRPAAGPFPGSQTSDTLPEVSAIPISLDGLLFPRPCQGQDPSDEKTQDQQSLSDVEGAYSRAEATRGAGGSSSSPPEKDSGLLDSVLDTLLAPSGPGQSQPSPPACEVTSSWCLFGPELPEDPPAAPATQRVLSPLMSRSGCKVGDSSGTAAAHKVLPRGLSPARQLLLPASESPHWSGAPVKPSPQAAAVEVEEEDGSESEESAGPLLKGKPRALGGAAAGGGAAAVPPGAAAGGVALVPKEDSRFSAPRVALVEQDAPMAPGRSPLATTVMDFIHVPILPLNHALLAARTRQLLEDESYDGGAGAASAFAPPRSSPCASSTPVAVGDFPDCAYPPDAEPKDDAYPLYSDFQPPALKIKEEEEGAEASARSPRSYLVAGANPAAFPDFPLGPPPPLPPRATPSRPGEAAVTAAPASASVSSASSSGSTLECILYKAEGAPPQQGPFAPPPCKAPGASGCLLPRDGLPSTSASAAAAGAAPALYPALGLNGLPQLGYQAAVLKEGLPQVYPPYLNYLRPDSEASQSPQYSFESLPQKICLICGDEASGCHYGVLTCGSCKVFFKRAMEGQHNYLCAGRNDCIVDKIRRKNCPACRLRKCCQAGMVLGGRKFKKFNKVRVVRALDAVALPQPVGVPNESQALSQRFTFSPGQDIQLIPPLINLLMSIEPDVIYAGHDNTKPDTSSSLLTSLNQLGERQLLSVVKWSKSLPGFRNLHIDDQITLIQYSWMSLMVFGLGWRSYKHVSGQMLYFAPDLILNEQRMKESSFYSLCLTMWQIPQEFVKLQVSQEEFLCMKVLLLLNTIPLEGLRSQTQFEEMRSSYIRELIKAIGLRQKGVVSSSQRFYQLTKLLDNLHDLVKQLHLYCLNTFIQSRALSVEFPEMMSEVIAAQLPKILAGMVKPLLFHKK", "test": "Progesterone receptor-antagonistic action in stably transfected SK-N-MC cells, PR-B, MMTV-LUC reporter", "type": "cell-based", "settings": "read-out: IC50 PR-B", "method": "as §1, §2"}}}
{"smiles": "Cc1ccc(NC(=O)NCC#Cc2ccc([C@H]3C[C@@]4(C)[C@@H](CC[C@@]4(O)C(F)(F)C(F)(F)F)[C@@H]4CCC5=CC(=O)CCC5=C43)cc2)cc1", "note": "[Example 38, 1-{3-[4-((8S,11R,13S,14S,17S)-17-hydroxy-13-methyl-3-oxo-17-pentafluoroethyl-2,3,6,7,8,11,12,13,14,15,16,17-dodecahydro-1H-cyclopenta[a]phenanthren-11-yl)phenyl]prop-2-ynyl}-3-(4-methylphenyl)urea]", "values": [{"measurement": "IC50", "setting": "[1]", "result": 0.2, "unit": "nM"}, {"measurement": "IC50", "setting": "[2]", "result": 0.3, "unit": "nM"}]}
{"smiles": "C[C@]12C[C@H](c3ccc(C#CCNC(=O)NCc4ccccc4)cc3)C3=C4CCC(=O)C=C4CCC3C1CC[C@@]2(O)C(F)(F)C(F)(F)F", "note": "(stereo partly drawn) [Example 39, 1-benzyl-3-{3-[4-((8S,11R,13S,14S,17S)-17-hydroxy-13-methyl-3-oxo-17-pentafluoroethyl-2,3,6,7,8,11,12,13,14,15,16,17-dodecahydro-1H-cyclopenta[a]phenanthren-1′-yl)phenyl]prop-2-ynyl}urea]", "values": [{"measurement": "IC50", "setting": "[1]", "result": 0.1, "unit": "nM"}, {"measurement": "IC50", "setting": "[2]", "result": 0.1, "unit": "nM"}]}
{"smiles": "CC(C)(C)NC(=O)NCC#Cc1ccc([C@H]2C[C@@]3(C)[C@@H](CC[C@@]3(O)C(F)(F)C(F)(F)F)[C@@H]3CCC4=CC(=O)CCC4=C32)cc1", "note": "[Example 40, 1-{3-[4-((8S,11R,13S,14S,17S)-17-hydroxy-13-methyl-3-oxo-17-pentafluoroethyl-2,3,6,7,8,11,12,13,14,15,16,17-dodecahydro-1H-cyclopenta[a]phenanthren-11-yl)phenyl]prop-2-ynyl}-3-tert-butylurea]", "values": [{"measurement": "IC50", "setting": "[1]", "result": 0.1, "unit": "nM"}, {"measurement": "IC50", "setting": "[2]", "result": 0.3, "unit": "nM"}]}
{"smiles": "C=CCNC(=O)NCC#Cc1ccc([C@H]2C[C@@]3(C)[C@@H](CC[C@@]3(O)C(F)(F)C(F)(F)F)[C@@H]3CCC4=CC(=O)CCC4=C32)cc1", "note": "[Example 41, 1-allyl-3-{3-[4-((8S,11R,13S,14S,17S)-17-hydroxy-13-methyl-3-oxo-17-pentafluoroethyl-2,3,6,7,8,11,12,13,14,15,16,17-dodecahydro-1H-cyclopenta[a]phenanthren-1′-yl)phenyl]prop-2-ynyl}urea]", "values": [{"measurement": "IC50", "setting": "[1]", "result": 0.1, "unit": "nM"}, {"measurement": "IC50", "setting": "[2]", "result": 0.1, "unit": "nM"}]}
{"smiles": "CCOC(=O)CNC(=O)NCC#Cc1ccc([C@H]2C[C@@]3(C)C(CC[C@@]3(O)C(F)(F)C(F)(F)F)C3CCC4=CC(=O)CCC4=C32)cc1", "note": "(stereo partly drawn) [Example 42, (3-{3-[4-((8S,11R,13S,14S,17S)-17-hydroxy-13-methyl-3-oxo-17-pentafluoroethyl-2,3,6,7,8,11,12,13,14,15,16,17-dodecahydro-1H-cyclopenta[a]phenanthren-1′-yl)phenyl]prop-2-ynyl}ureido)acetic acid ethyl ester]", "values": [{"measurement": "IC50", "setting": "[1]", "result": 0.7, "unit": "nM"}, {"measurement": "IC50", "setting": "[2]", "result": 0.8, "unit": "nM"}]}
{"smiles": "C[C@]12C[C@H](c3ccc(C#CCNC(=O)Nc4ccc(N5CCCCC5)cc4)cc3)C3=C4CCC(=O)C=C4CC[C@H]3[C@@H]1CC[C@@]2(O)C(F)(F)C(F)(F)F", "note": "[Example 43, 1-{3-[4-((8S,11R,13S,14S,17S)-17-hydroxy-13-methyl-3-oxo-17-pentafluoroethyl-2,3,6,7,8,11,12,13,14,15,16,17-dodecahydro-1H-cyclopenta[a]phenanthren-11-yl)phenyl]prop-2-ynyl}-3-(4-piperidin-1-ylphenyl)urea]", "values": [{"measurement": "IC50", "setting": "[1]", "result": 0.8, "unit": "nM"}, {"measurement": "IC50", "setting": "[2]", "result": 0.9, "unit": "nM"}]}
{"smiles": "C=CCNC(=O)OCC#Cc1ccc([C@H]2C[C@@]3(C)C(CC[C@@]3(O)C(F)(F)C(F)(F)F)C3CCC4=CC(=O)CCC4=C32)cc1", "note": "(stereo partly drawn) [Example 44, allylcarbamic acid 3-[4-((8S,11R,13S,14S,17S)-17-hydroxy-13-methyl-3-oxo-17-pentafluoroethyl-2,3,6,7,8,11,12,13,14,15,16,17-dodecahydro-1H-cyclopenta[a]phenanthren-1′-yl)phenyl]prop-2-ynyl ester]", "values": [{"measurement": "IC50", "setting": "[1]", "result": 0.01, "unit": "nM"}, {"measurement": "IC50", "setting": "[2]", "result": 0.01, "unit": "nM"}]}
{"smiles": "CCNC(=O)OCC#Cc1ccc([C@H]2C[C@@]3(C)C(CC[C@@]3(O)C(F)(F)C(F)(F)F)C3CCC4=CC(=O)CCC4=C32)cc1", "note": "(stereo partly drawn) [Example 45, ethylcarbamic acid 3-[4-((8S,11R,13S,14S,17S)-17-hydroxy-13-methyl-3-oxo-17-pentafluoroethyl-2,3,6,7,8,11,12,13,14,15,16,17-dodecahydro-1H-cyclopenta[a]phenanthren-1′-yl)phenyl]prop-2-ynyl ester]", "values": [{"measurement": "IC50", "setting": "[1]", "result": 0.01, "unit": "nM"}, {"measurement": "IC50", "setting": "[2]", "result": 0.01, "unit": "nM"}]}
{"smiles": "C[C@]12C[C@H](c3ccc(C#CCOC(=O)Nc4ccccc4)cc3)C3=C4CCC(=O)C=C4CCC3C1CC[C@@]2(O)C(F)(F)C(F)(F)F", "note": "(stereo partly drawn) [Example 46, phenylcarbamic acid 3-[4-((8S,11R,13S,14S,17S)-17-hydroxy-13-methyl-3-oxo-17-pentafluoroethyl-2,3,6,7,8,11,12,13,14,15,16,17-dodecahydro-1H-cyclopenta[a]phenanthren-1′-yl)phenyl]prop-2-ynyl ester]", "values": [{"measurement": "IC50", "setting": "[1]", "result": 0.01, "unit": "nM"}, {"measurement": "IC50", "setting": "[2]", "result": 0.01, "unit": "nM"}]}
{"smiles": "Cc1ccc(NC(=O)OCC#Cc2ccc([C@H]3C[C@@]4(C)C(CC[C@@]4(O)C(F)(F)C(F)(F)F)C4CCC5=CC(=O)CCC5=C43)cc2)cc1", "note": "(stereo partly drawn) [Example 47, 4-methylphenylcarbamic acid 3-[4-((8S,11R,13S,14S,17S)-17-hydroxy-13-methyl-3-oxo-17-pentafluoroethyl-2,3,6,7,8,11,12,13,14,15,16,17-dodecahydro-1H-cyclopenta[a]phenanthren-1′-yl)phenyl]prop-2-ynyl ester]", "values": [{"measurement": "IC50", "setting": "[1]", "result": 0.01, "unit": "nM"}, {"measurement": "IC50", "setting": "[2]", "result": 0.01, "unit": "nM"}]}
{"smiles": "C[C@]12C[C@H](c3ccc(C#CCOC(=O)Nc4ccc(F)cc4)cc3)C3=C4CCC(=O)C=C4CCC3C1CC[C@@]2(O)C(F)(F)C(F)(F)F", "note": "(stereo partly drawn) [Example 48, 4-fluorophenylcarbamic acid 3-[4-((8S,11R,13S,14S,17S)-17-hydroxy-13-methyl-3-oxo-17-pentafluoroethyl-2,3,6,7,8,11,12,13,14,15,16,17-dodecahydro-1H-cyclopenta[a]phenanthren-1′-yl)phenyl]prop-2-ynyl ester]", "values": [{"measurement": "IC50", "setting": "[1]", "result": 0.09, "unit": "nM"}, {"measurement": "IC50", "setting": "[2]", "result": 0.08, "unit": "nM"}]}
{"smiles": "CC(C)NC(=O)OCC#Cc1ccc([C@H]2C[C@@]3(C)C(CC[C@@]3(O)C(F)(F)C(F)(F)F)C3CCC4=CC(=O)CCC4=C32)cc1", "note": "(stereo partly drawn) [Example 49, isopropylcarbamic acid 3-[4-((8S,11R,13S,14S,17S)-17-hydroxy-13-methyl-3-oxo-17-pentafluoroethyl-2,3,6,7,8,11,12,13,14,15,16,17-dodecahydro-1H-cyclopenta[a]phenanthren-1′-yl)phenyl]prop-2-ynyl ester]", "values": [{"measurement": "IC50", "setting": "[1]", "result": 0.01, "unit": "nM"}, {"measurement": "IC50", "setting": "[2]", "result": 0.07, "unit": "nM"}]}
